Assay: circular dichroism spectroscopy of LL-III
Assay type: physicochemical
Settings: 300 μM LL-III; 20 mM sodium acetate, pH 5.0, 25 °C; minimum around 195 nm
Description: Figure 2 A) Binding isotherm obtained by means of steady‐state fluorescence anisotropy measurements. The experiment was performed by titrating a 4 μM solution of carboxyfluorescein‐labeled LL‐III with a solution of α‐Syn in the range 0–100 μM. The red line represents the best fit according to a 1 : 1 binding model.[29] The fluorophore was covalently attached to the N‐terminus of the peptide. B) Circular dichroism (CD) spectra of LL‐III (black solid line), α‐Syn (red solid line,) and of a mixture of LL‐III and α‐Syn (blue solid line) recorded at day 0. Shown are also spectra of the LL‐III/α‐Syn mixture recorded after 5 days (dashed blue line) and after 10 days (dotted blue lines). Here, the concentration of LL‐III was 300 μM, and the concentration of α‐Syn was 30 μM. […]
Next, by means of circular dichroism (CD) spectroscopy, we explored the effect of LLPS formation and LL‐III partitioning on the conformation of the protein. […] In support of this conclusion, we note that the spectrum of the mixture is superimposable with the sum of the spectra of LL‐III and α‐Syn, which were recorded separately (Figure S6). The time evolution of the CD spectrum of the LL‐III/α‐Syn mixture was also recorded after 5 and 10 days (Figure 2B). […]
µM) and following the anisotropy changes of the Trp residue. […] The anisotropy was evaluated at 354 nm which corresponds to the maximum of emission of the free peptide. […]

Substance: NH2-VNWKKIL GKIIKVVK -CONH2 [LL‐III]
- conformation (CD): random‐coiled conformation in solution

Reference: PMC8457056, “Remodeling of the Fibrillation Pathway of α‐Synuclein by Interaction with Antimicrobial Peptide LL‐III” (Chemistry (Weinheim an Der Bergstrasse, Germany), 2021)
